Experimental data from PubChem BioAssay AID1963970 (Molecular Pharmacology Branch, DTP, NCI, 2024).

System: 931267-113-T-J1-PDC multicell spheroid viability
Assay: Anticancer human tumor 931267-113-T-J1-PDC patient-derived colon adenocarcinoma cell line growth inhibition [PI3K]
Conditions: for IC50: curve of first compound; for viability, T/C: stronger effect = lower value
Procedure, shortened: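 Spheroid viability read-out. Co-cultures contained the tumor line plus HUVEC and human MSCs. Each agent was paired with a PI3K inhibitor (inavolisib, alpelisib, duvelisib, copanlisib) across half-log dilutions starting at clinical Cmax, or at 10 microM when Cmax was unknown.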

[1] = second compound 0.0316 µM, first compound 0.0316 µM
[2] = second compound 0.0316 µM, first compound 0.1 µM
[3] = second compound 0.0316 µM, first compound 0.316 µM
[4] = second compound 0.0316 µM, first compound 1 µM
[5] = second compound 0.0316 µM, first compound 3.16 µM
[6] = second compound 0.0316 µM, first compound 10 µM
[7] = second compound 0.1 µM, first compound 0.0316 µM
[8] = second compound 0.1 µM, first compound 0.1 µM
[9] = second compound 0.1 µM, first compound 0.316 µM
[10] = second compound 0.1 µM, first compound 1 µM
[11] = second compound 0.1 µM, first compound 3.16 µM
[12] = second compound 0.1 µM, first compound 10 µM
[13] = second compound 0.316 µM, first compound 0.0316 µM
[14] = second compound 0.316 µM, first compound 0.1 µM
[15] = second compound 0.316 µM, first compound 0.316 µM
[16] = second compound 0.316 µM, first compound 1 µM
[17] = second compound 0.316 µM, first compound 3.16 µM
[18] = second compound 0.316 µM, first compound 10 µM
[19] = second compound 1 µM, first compound 0.0316 µM
[20] = second compound 1 µM, first compound 0.1 µM
[21] = second compound 1 µM, first compound 0.316 µM
[22] = second compound 1 µM, first compound 1 µM
[23] = second compound 1 µM, first compound 3.16 µM
[24] = second compound 1 µM, first compound 10 µM
[25] = second compound 3.16 µM, first compound 0.0316 µM
[26] = second compound 3.16 µM, first compound 0.1 µM
[27] = second compound 3.16 µM, first compound 0.316 µM
[28] = second compound 3.16 µM, first compound 1 µM
[29] = second compound 3.16 µM, first compound 3.16 µM
[30] = second compound 3.16 µM, first compound 10 µM
[31] = second compound 10 µM, first compound 0.0316 µM
[32] = second compound 10 µM, first compound 0.1 µM
[33] = second compound 10 µM, first compound 0.316 µM
[34] = second compound 10 µM, first compound 1 µM
[35] = second compound 10 µM, first compound 3.16 µM
[36] = second compound 10 µM, first compound 10 µM
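Also: viability read 7 days after compound addition.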

Compound `CC(C)NCC(C(=O)N1CCN(c2ncnc3c2C(C)CC3O)CC1)c1ccc(Cl)cc1` (stereo not drawn) + CC(Nc1ncnc2nc[nH]c12)c1cc2cccc(Cl)c2c(=O)n1-c1ccccc1 has an IC50 (second compound 0.0316 µM) greater than 10 µM, an IC50 (second compound 0.1 µM) greater than 10 µM and an IC50 (second compound 0.316 µM) greater than 10 µM. The IC50 (second compound 1 µM) was greater than 10 µM, the IC50 (second compound 3.16 µM) was greater than 10 µM and the IC50 (second compound 10 µM) was greater than 10 µM. It also gave a viability, T/C [1] of 97.2%, a viability, T/C [2] of 99.5% and a viability, T/C [3] of 92.1%. The viability, T/C [4] was 101%, the viability, T/C [5] was 97.1% and the viability, T/C [6] was 81.6%. It also gave a viability, T/C [7] of 108%, a viability, T/C [8] of 95.6% and a viability, T/C [9] of 100%. The viability, T/C [10] was 98.8%, the viability, T/C [11] was 97.1% and the viability, T/C [12] was 74.7%. It also gave a viability, T/C [13] of 108%, a viability, T/C [14] of 107% and a viability, T/C [15] of 106%. For the same compound, the viability, T/C [16] was 94.7%, the viability, T/C [17] was 99.6% and the viability, T/C [18] was 85%. For the same compound, the viability, T/C [19] was 105%, the viability, T/C [20] was 107% and the viability, T/C [21] was 93%. For the same compound, the viability, T/C [22] was 99.6%, the viability, T/C [23] was 99.1% and the viability, T/C [24] was 80.7%. The viability, T/C [25] was 103%, the viability, T/C [26] was 100% and the viability, T/C [27] was 89.7%. The viability, T/C [28] was 94.6%, the viability, T/C [29] was 90.9% and the viability, T/C [30] was 71.7%. The viability, T/C [31] was 95.2%, the viability, T/C [32] was 86% and the viability, T/C [33] was 86.8%. The viability, T/C [34] was 87.7%, the viability, T/C [35] was 88.7% and the viability, T/C [36] was 75.1%.
With `CCN1CCN(Cc2ccc(Nc3ncc(F)c(-c4cc(F)c5nc(C)n(C(C)C)c5c4)n3)nc2)CC1` + CC(Nc1ncnc2nc[nH]c12)c1cc2cccc(Cl)c2c(=O)n1-c1ccccc1 the IC50 (second compound 0.0316 µM) was greater than 1 µM, the IC50 (second compound 0.1 µM) was greater than 1 µM and the IC50 (second compound 0.316 µM) was greater than 1 µM. The IC50 (second compound 1 µM) was greater than 1 µM, the IC50 (second compound 3.16 µM) was greater than 1 µM and the IC50 (second compound 10 µM) was greater than 1 µM. It also gave a viability, T/C (second compound 0.0316 µM, first compound 0.00316 µM) of 102%, a viability, T/C (second compound 0.0316 µM, first compound 0.01 µM) of 94.6% and a viability, T/C [1] of 108%. For the same compound, the viability, T/C [2] was 100%, the viability, T/C [3] was 104% and the viability, T/C [4] was 90.2%. The viability, T/C (second compound 0.1 µM, first compound 0.00316 µM) was 101%, the viability, T/C (second compound 0.1 µM, first compound 0.01 µM) was 110% and the viability, T/C [7] was 104%. For the same compound, the viability, T/C [8] was 109%, the viability, T/C [9] was 100% and the viability, T/C [10] was 84.2%. For the same compound, the viability, T/C (second compound 0.316 µM, first compound 0.00316 µM) was 111%, the viability, T/C (second compound 0.316 µM, first compound 0.01 µM) was 107% and the viability, T/C [13] was 97.7%. It also gave a viability, T/C [14] of 98.5%, a viability, T/C [15] of 109% and a viability, T/C [16] of 98.2%. For the same compound, the viability, T/C (second compound 1 µM, first compound 0.00316 µM) was 103%, the viability, T/C (second compound 1 µM, first compound 0.01 µM) was 101% and the viability, T/C [19] was 105%. For the same compound, the viability, T/C [20] was 102%, the viability, T/C [21] was 102% and the viability, T/C [22] was 86%. It also gave a viability, T/C (second compound 3.16 µM, first compound 0.00316 µM) of 107%, a viability, T/C (second compound 3.16 µM, first compound 0.01 µM) of 93.4% and a viability, T/C [25] of 86.8%. The viability, T/C [26] was 95.3%, the viability, T/C [27] was 92.8% and the viability, T/C [28] was 81.2%. For the same compound, the viability, T/C (second compound 10 µM, first compound 0.00316 µM) was 92%, the viability, T/C (second compound 10 µM, first compound 0.01 µM) was 86.7% and the viability, T/C [31] was 89.7%. For the same compound, the viability, T/C [32] was 80.8%, the viability, T/C [33] was 81.9% and the viability, T/C [34] was 67.9%.
For `Cn1ncc(Cl)c1-c1cc(C(=O)NC(CN)Cc2cccc(F)c2)sc1Cl` (stereo not drawn) + CC(Nc1ncnc2nc[nH]c12)c1cc2cccc(Cl)c2c(=O)n1-c1ccccc1, the IC50 (second compound 0.0316 µM) was 6.98 µM, the IC50 (second compound 0.1 µM) was 8.83 µM and the IC50 (second compound 0.316 µM) was 6.77 µM. It also gave an IC50 (second compound 1 µM) of 8.02 µM, an IC50 (second compound 3.16 µM) of 6.2 µM and an IC50 (second compound 10 µM) of 6 µM. The viability, T/C [1] was 100%, the viability, T/C [2] was 105% and the viability, T/C [3] was 101%. The viability, T/C [4] was 86%, the viability, T/C [5] was 85.7% and the viability, T/C [6] was 35.1%. The viability, T/C [7] was 106%, the viability, T/C [8] was 119% and the viability, T/C [9] was 96%. The viability, T/C [10] was 91.4%, the viability, T/C [11] was 86.8% and the viability, T/C [12] was 44.5%. The viability, T/C [13] was 114%, the viability, T/C [14] was 109% and the viability, T/C [15] was 99.3%. The viability, T/C [16] was 94.5%, the viability, T/C [17] was 79% and the viability, T/C [18] was 35.7%. It also gave a viability, T/C [19] of 107%, a viability, T/C [20] of 110% and a viability, T/C [21] of 92.5%. The viability, T/C [22] was 91.2%, the viability, T/C [23] was 80.6% and the viability, T/C [24] was 42.4%. The viability, T/C [25] was 99.7%, the viability, T/C [26] was 97.3% and the viability, T/C [27] was 97.8%. For the same compound, the viability, T/C [28] was 86.9%, the viability, T/C [29] was 74.5% and the viability, T/C [30] was 33.4%. For the same compound, the viability, T/C [31] was 92.9%, the viability, T/C [32] was 89.3% and the viability, T/C [33] was 90.2%. It also gave a viability, T/C [34] of 87.3%, a viability, T/C [35] of 67.3% and a viability, T/C [36] of 36.1%.
For `Cn1nccc1Nc1nccc(-c2ccn(C(CO)c3ccc(Cl)c(F)c3)c(=O)c2)n1` (stereo not drawn) + CC(Nc1ncnc2nc[nH]c12)c1cc2cccc(Cl)c2c(=O)n1-c1ccccc1, the IC50 (second compound 0.0316 µM) was 7.95 µM, the IC50 (second compound 0.1 µM) was 7.53 µM and the IC50 (second compound 0.316 µM) was 7.72 µM. The IC50 (second compound 1 µM) was 6.96 µM, the IC50 (second compound 3.16 µM) was 5.22 µM and the IC50 (second compound 10 µM) was 3.03 µM. The viability, T/C [1] was 105%, the viability, T/C [2] was 103% and the viability, T/C [3] was 98.9%. For the same compound, the viability, T/C [4] was 90.6%, the viability, T/C [5] was 65.7% and the viability, T/C [6] was 46.1%. It also gave a viability, T/C [7] of 111%, a viability, T/C [8] of 109% and a viability, T/C [9] of 92.7%. The viability, T/C [10] was 87.5%, the viability, T/C [11] was 64.6% and the viability, T/C [12] was 45%. The viability, T/C [13] was 107%, the viability, T/C [14] was 113% and the viability, T/C [15] was 100%. For the same compound, the viability, T/C [16] was 78.1%, the viability, T/C [17] was 76.4% and the viability, T/C [18] was 42.7%. The viability, T/C [19] was 114%, the viability, T/C [20] was 109% and the viability, T/C [21] was 92.6%. For the same compound, the viability, T/C [22] was 86.2%, the viability, T/C [23] was 70.3% and the viability, T/C [24] was 40.4%. The viability, T/C [25] was 109%, the viability, T/C [26] was 94.3% and the viability, T/C [27] was 87.5%. It also gave a viability, T/C [28] of 78%, a viability, T/C [29] of 63.3% and a viability, T/C [30] of 35.1%. It also gave a viability, T/C [31] of 88.2%, a viability, T/C [32] of 86.3% and a viability, T/C [33] of 79.6%. The viability, T/C [34] was 77.4%, the viability, T/C [35] was 48.4% and the viability, T/C [36] was 27.4%.
